Our source for the Ki values is patent US9493411B2 (AbbVie Inc., priority 2013, dated 2016).

In one assay the target is T1, BRD4 (BDI_K57-E168) (Homo sapiens, UniProt O60885).
T1 construct: BD1: amino acids K57-E168; made in house
As to the kind of experiment: TR-FRET bromodomain binding assay, BRD4 first bromodomain. Particulars: His-tagged BD1, Alexa647-labeled probe 100 nM; Ki calculated from IC50. The procedure: (§1) A time-resolved fluorescence resonance energy transfer (TR-FRET) assay was used to determine the affinities of compounds of the Examples listed in Table 1 for each bromodomain of BRD4. His-tagged first (BD1: amino acids K57-E168) and second (BD2: amino acids E352-E168) bromodomains of BRD4 were expressed and purified. An Alexa647-labeled BET-inhibitor was used as the fluorescent probe in the assay.
(§2) Compound dilution series were prepared in DMSO via a 3-fold serial dilution from 2.5 mM to 42 nM. Compounds were then diluted 6:100 in assay buffer (20 mM Sodium Phosphate, pH 6.0, 50 mM NaCl, 1 mM Ethylenediaminetetraacetic acid disodium salt dihydrate, 0.01% Triton X-100, 1 mM DL-Dithiothreitol) to yield 3× working solutions. Six microliters (μL) of the working solution was then transferred to white, low-volume assay plates (Costar #3673). A 1.5× assay mixture containing His-tagged bromodomain, Europium-conjugated anti-His antibody (Invitrogen PV5596) and the Alexa-647-conjugated probe molecule was also prepared. Twelve μL of this solution were added to the assay plate to reach a final volume of 18 μL. The final concentration of 1× assay buffer contains 2% DMSO, 50 μM-0.85 nM compound, 8 nM His-tagged bromodomain, 1 nM Europium-conjugated anti-His-tag antibody and 100 nM or 30 nM probe (for BDI or BDII, respectively). After a one-hour incubation at room temperature, TR-FRET ratios were determined using an Envision multilabel plate reader (Ex 340, Em […]).
(§3) TR-FRET data were normalized to the means of 24 no-compound controls (“high”) and 8 controls containing 1 μM un-labeled probe (“low”). Percent inhibition was plotted as a function of compound concentration and the data were fit with the 4 parameter logistic equation to obtain IC50s. Inhibition constants (Ki) were calculated from the IC50s, probe Kd and probe concentration. Typical Z′ values were between 0.65 and 0.75. The minimum significant ratio was determined to evaluate assay reproducibility (Eastwood et al., (2006) J Biomol Screen, 11: 253-261). The MSR was determined to be 2.03 for BDI and 1.93 for BDII, and a moving MSR (last six run MSR overtime) for both BDI and BDII was typically <3.

Another assay addresses T2, BRD4 (BDII_E352-M457) (Homo sapiens, UniProt O60885).
T2 construct: made in house
As to the kind of experiment: TR-FRET bromodomain binding assay, BRD4 second bromodomain. Conditions: His-tagged BD2, Alexa647-labeled probe 30 nM; Ki calculated from IC50. The procedure: as §1, §2, §3

With `CC(=O)Nc1cccc(-c2cc(C(N)=O)c(C)[nH]2)c1` [Example 5, 5-[3-(acetylamino)phenyl]-2-methyl-1H-pyrrole-3-carboxamide], the Ki is 8.09 µM at BRD4 (BDI_K57-E168) and 6.43 µM at BRD4 (BDII_E352-M457).
In the same order, the values of `Cc1noc(C)c1-c1ccc(-c2cc(C(N)=O)c(C)[nH]2)cc1` [Example 92, 5-[4-(3,5-dimethyl-1,2-oxazol-4-yl)phenyl]-2-methyl-1H-pyrrole-3-carboxamide] are 1.69 µM and 2.43 µM.
In the same order, the values of `Cc1[nH]c(-c2ccccc2Oc2cccc3c2CCCC3)cc1C(N)=O` [Example 136, 2-methyl-5-[2-(5,6,7,8-tetrahydronaphthalen-1-yloxy)phenyl]-1H-pyrrole-3-carboxamide] are 0.564 µM and 1.98 µM.
`Cc1[nH]c(-c2ccccc2NCc2ccc(Cl)c(Cl)c2)cc1C(N)=O` [Example 33, 5-{2-[(3,4-dichlorobenzyl)amino]phenyl}-2-methyl-1H-pyrrole-3-carboxamide]: the inhibition constant Ki at BRD4 (BDI_K57-E168) was 9.63 µM; on BRD4 (BDII_E352-M457), 13.1 µM.
Take `Cc1[nH]c(-c2ccccc2Oc2cccc3ccccc23)cc1C(N)=O` [Example 140, 2-methyl-5-[2-(naphthalen-1-yloxy)phenyl]-1H-pyrrole-3-carboxamide]: the values for the Ki at BRD4 (BDI_K57-E168) and at BRD4 (BDII_E352-M457) were 0.607 µM and 1.3 µM, respectively.
In the same order, the values of `Cc1[nH]c(-c2cccc(N)c2)cc1C(N)=O` [Example 4, 5-(3-aminophenyl)-2-methyl-1H-pyrrole-3-carboxamide] are 5.19 µM and 4.44 µM.
For `Cc1[nH]c(-c2ccccc2NC2CCCCCC2)cc1C(N)=O` [Example 73, 5-[2-(cycloheptylamino)phenyl]-2-methyl-1H-pyrrole-3-carboxamide] the same measures were 0.862 µM and 3.83 µM.
For `Cc1[nH]c(-c2cc(N)ccc2Oc2ccccc2)cc1C(N)=O` [Example 161, 5-(5-amino-2-phenoxyphenyl)-2-methyl-1H-pyrrole-3-carboxamide] the same measures were 0.109 µM and 0.658 µM.
`CC(=O)Nc1ccc(CN(CC2CCCC2)c2ccccc2-c2cc(C(N)=O)c(C)[nH]2)cc1` [Example 59, 5-(2-{[4-(acetylamino)benzyl](cyclopentylmethyl)amino}phenyl)-2-methyl-1H-pyrrole-3-carboxamide]: the inhibition constant Ki at BRD4 (BDI_K57-E168) was 2.13 µM; at BRD4 (BDII_E352-M457) it was 3.31 µM.
For `Cc1[nH]c(-c2ccc(NS(C)(=O)=O)cc2)cc1C(N)=O` [Example 9, 2-methyl-5-{4-[(methylsulfonyl)amino]phenyl}-1H-pyrrole-3-carboxamide] the same measures were 2.88 µM and 3.14 µM.
For `Cc1cc(CNc2ccccc2-c2cc(C(N)=O)c(C)[nH]2)oc1C` [Example 20, 5-(2-{[(4,5-dimethylfuran-2-yl)methyl]amino}phenyl)-2-methyl-1H-pyrrole-3-carboxamide] the same measures were 1.19 µM and 3.29 µM.
In the same order, the values of `Cc1[nH]c(-c2ccccc2NCC2CCCCC2)cc1C(N)=O` [Example 36, 5-{2-[(cyclohexylmethyl)amino]phenyl}-2-methyl-1H-pyrrole-3-carboxamide] are 0.521 µM and 1.16 µM.
`CC(=O)c1ccccc1-c1cccc(-c2cc(C(N)=O)c(C)[nH]2)c1` [Example 153, 5-(2′-acetylbiphenyl-3-yl)-2-methyl-1H-pyrrole-3-carboxamide]: the values for the inhibition constant Ki at BRD4 (BDI_K57-E168) and on BRD4 (BDII_E352-M457) were 2.22 µM and 7.32 µM, respectively.
For `Cc1[nH]c(-c2ccc(-c3cccc(C(=O)N(C)C)c3)cc2)cc1C(N)=O` [Example 104, 5-[3′-(dimethylcarbamoyl)biphenyl-4-yl]-2-methyl-1H-pyrrole-3-carboxamide] the same measures were 2.38 µM and 2.34 µM.
`Cc1[nH]c(-c2ccccc2NCc2ccc(N(C)C)cc2)cc1C(N)=O` [Example 37, 5-(2-{[4-(dimethylamino)benzyl]amino}phenyl)-2-methyl-1H-pyrrole-3-carboxamide]: the figures for the Ki on BRD4 (BDI_K57-E168) and on BRD4 (BDII_E352-M457) were 4.68 µM and 3.58 µM, respectively.
Regarding `Cc1[nH]c(-c2ccccc2NCC2CCN(C(=O)OC(C)(C)C)CC2)cc1C(N)=O` [Example 41, tert-butyl 4-({[2-(4-carbamoyl-5-methyl-1H-pyrrol-2-yl)phenyl]amino}methyl)piperidine-1-carboxylate], the Ki at BRD4 (BDI_K57-E168) was 0.48 µM; at BRD4 (BDII_E352-M457), 16.5 µM.
For `Cc1[nH]c(-c2ccc(-c3ccoc3)cc2)cc1C(N)=O` [Example 100, 5-[4-(furan-3-yl)phenyl]-2-methyl-1H-pyrrole-3-carboxamide] the same measures were 8.36 µM and 5.32 µM.
For `Cc1[nH]c(-c2cccc(-c3ccccc3)c2)cc1C(N)=O` [Example 150, 5-(biphenyl-3-yl)-2-methyl-1H-pyrrole-3-carboxamide] the same measures were 10.7 µM and 9.69 µM.
For `Cc1[nH]c(-c2ccccc2NCc2cccc(Cl)c2)cc1C(N)=O` [Example 35, 5-{2-[(3-chlorobenzyl)amino]phenyl}-2-methyl-1H-pyrrole-3-carboxamide] the same measures were 2.7 µM and 3.26 µM.
Turning to `Cc1[nH]c(-c2ccccc2NS(=O)(=O)C2CCCCC2)cc1C(N)=O` [Example 79, 5-{2-[(cyclohexylsulfonyl)amino]phenyl}-2-methyl-1H-pyrrole-3-carboxamide], the Ki at BRD4 (BDI_K57-E168) is 0.904 µM; on BRD4 (BDII_E352-M457), 2.65 µM.
In the same order, the values of `Cc1[nH]c(-c2cccc(-c3cn[nH]c3)c2)cc1C(N)=O` [Example 155, 2-methyl-5-[3-(1H-pyrazol-4-yl)phenyl]-1H-pyrrole-3-carboxamide] are 2.57 µM and 5.46 µM.
For `Cc1[nH]c(-c2ccccc2Oc2ccc(Cl)cc2)cc1C(N)=O` [Example 116, 5-[2-(4-chlorophenoxy)phenyl]-2-methyl-1H-pyrrole-3-carboxamide] the same measures were 0.182 µM and 0.639 µM.
For `Cc1[nH]c(-c2cccc(NS(C)(=O)=O)c2)cc1C(N)=O` [Example 6, 2-methyl-5-{3-[(methylsulfonyl)amino]phenyl}-1H-pyrrole-3-carboxamide] the same measures were 3.16 µM and 5.01 µM.
As for `CC(=O)Nc1ccccc1-c1cc(C(N)=O)c(C)[nH]1` [Example 2, 5-[2-(acetylamino)phenyl]-2-methyl-1H-pyrrole-3-carboxamide], the inhibitory constant (Ki) at BRD4 (BDI_K57-E168) was 2.92 µM; on BRD4 (BDII_E352-M457) it was 21.5 µM.
For `Cc1[nH]c(-c2ccccc2NCc2cc(C(F)(F)F)cc(C(F)(F)F)c2)cc1C(N)=O` [Example 21, 5-(2-{[3,5-bis(trifluoromethyl)benzyl]amino}phenyl)-2-methyl-1H-pyrrole-3-carboxamide] the same measures were 9.69 µM and 21.5 µM.
For `Cc1[nH]c(-c2ccccc2Nc2ccccc2)cc1C(N)=O` [Example 77, 2-methyl-5-[2-(phenylamino)phenyl]-1H-pyrrole-3-carboxamide] the same measures were 0.172 µM and 0.983 µM.
In the same order, the values of `Cc1cccc(CNc2ccccc2-c2cc(C(N)=O)c(C)[nH]2)c1` [Example 25, 2-methyl-5-{2-[(3-methylbenzyl)amino]phenyl}-1H-pyrrole-3-carboxamide] are 1.26 µM and 2.16 µM.
In the case of `COC(=O)CNC(=O)c1cc(-c2ccc(-c3c(C)noc3C)cc2)[nH]c1C` [Example 94, methyl N-({5-[4-(3,5-dimethyl-1,2-oxazol-4-yl)phenyl]-2-methyl-1H-pyrrol-3-yl}carbonyl)glycinate], the Ki at BRD4 (BDI_K57-E168) is 4.82 µM; at BRD4 (BDII_E352-M457), 21.5 µM.
In the same order, the values of `COc1cc(-c2ccc(-c3cc(C(N)=O)c(C)[nH]3)cc2)cc(OC)c1OC` [Example 99, 2-methyl-5-(3′,4′,5′-trimethoxybiphenyl-4-yl)-1H-pyrrole-3-carboxamide] are 2.3 µM and 2.32 µM.
For `COc1ccc(CNc2ccccc2-c2cc(C(N)=O)c(C)[nH]2)cc1` [Example 30, 5-{2-[(4-methoxybenzyl)amino]phenyl}-2-methyl-1H-pyrrole-3-carboxamide] the same measures were 3.06 µM and 3.48 µM.
For `Cc1[nH]c(-c2cccc(-c3cccnc3)c2)cc1C(N)=O` [Example 154, 2-methyl-5-[3-(pyridin-3-yl)phenyl]-1H-pyrrole-3-carboxamide] the same measures were 2.99 µM and 7.12 µM.
